We go through three compounds from paper PMC11595589, “A Pharmacokinetic and Bioavailability Study of Ecklonia cava Phlorotannins Following Intravenous and Oral Administration in Sprague–Dawley Rats” (Marine Drugs, 2024).

This series can be described thus: Relative polarity by RP-HPLC of EK-ECP. The following applies: RP-HPLC chromatogram of EK-ECP. Type of series: physicochemical. How it is done:
A further detailed analysis of the phlorotannins present in EK-ECP was performed to identify and quantify the major components (individual phlorotannins) by reversed phase high performance liquid chromatography (RP-HPLC). A representative HPLC (Column: CAPCELL PAK C18; Detector: UV 234 nm) chromatogram and the identification of major components are presented in Figure 3. As shown in the chromatogram, dieckol at retention time 15.65 min was the most notable compound in EK-ECP. The chromatogram could be divided to relatively high (6–13 min), mid (13~20 min) and low polarity region (20~27 min) and each region could be represented by the regionally most notable peak 8,8′-bieckol, dieckol and PFF-A, respectively. These three phlorotannins were selected for monitoring the blood samples upon administration of EK-ECP during pharmacokinetic (PK) experiment. Other minor phlorotannins than the three notable ones identified were 2-O-(2,4,6-Trihydroxyphenyl)-6,6′-bieckol (7.217 min), 6,6′-bieckol (7.717 min), 7-phloroeckol (7.717 min), 2-phloroeckol (9.883 min), eckol (10.450 min), dioxinodehydroeckol (23.100 min) and fucofuroeckol A (23.650 min). Other notable peaks, such as those at 12.133, 17.483, 20.833, and 21.250 min, remain unidentified due to the technical challenges in isolating and identifying the corresponding single compounds.
The hydroxyl protons observed in the phlorotannin structures are attached to aromatic rings, resulting in distinct downfield shifts (near 9 ppm) due to the electron-withdrawing effects of the aromatic system. This contrasts with the hydroxyl groups found in aliphatic alcohols in general. […]
^1H NMR (500 MHz) was acquired on Bruker Avance III 500 MHz NMR spectrometer (Bruker Corporation, Billerica, MA, USA) using DMSO-d6 as a solvent. […] To quantify the total polyphenolic content of EK-ECP, the Folin–Ciocalteu reagent was reacted with EK-ECP dissolved in 50% aqueous ethanol, and the resulting solution was analyzed using a UV–Vis spectrophotometer (SPECTROstarNano, BMG Labtech, Ortenberg, Germany) at 725 nm. […]
Take `Oc1cc(O)cc(Oc2c(O)cc(O)c3c2Oc2c(O)cc4oc5c(Oc6cc(O)cc(O)c6)c(O)cc(O)c5c4c2O3)c1` [PFF-A, phlorofucofuroeckol-A]: the “relative polarity within the phlorotannin extract” value is on record as “the most lipophilic”.

In the case of `Oc1cc(O)cc(Oc2c(O)cc(O)c3c2Oc2c(cc(O)c(-c4c(O)cc5c(c4O)Oc4c(Oc6cc(O)cc(O)c6)c(O)cc(O)c4O5)c2O)O3)c1` [8,8′-bieckol], the “relative polarity within the phlorotannin extract” value is listed as “the most hydrophilic”.

Consider `Oc1cc(O)cc(Oc2c(O)cc(O)c3c2Oc2c(O)cc(Oc4c(O)cc(Oc5c(O)cc(O)c6c5Oc5c(O)cc(O)cc5O6)cc4O)cc2O3)c1` [dieckol], for which the “relative polarity within the phlorotannin extract” value is listed as “in between”.
